Reference: BindingDB's records for doi:10.1021/jm00127a026 (Medical University of South Carolina, 1989)

Assay: The apparent Km of compound as a substrate for partially purified mouse liver Folyl-polyglutamate synthase
Settings: read-out: Ki

| apparent Km [µM] | Compound |
| --- | --- |
| 5.9 | NCCCC(NC(=O)c1ccc(OCc2ccc3nc(N)[nH]c(=O)c3c2)cc1)C(=O)O (stereo not given) |
| 1.2 | NCCCC(NC(=O)c1ccc(OCc2ccc3nc[nH]c(=O)c3c2)cc1)C(=O)O (stereo not given) |
| 0.42 | NCCCC(NC(=O)c1ccc(SCc2ccc3nc[nH]c(=O)c3c2)cc1)C(=O)O (stereo not given) |

More lines, now with the values behind:

| Compound | apparent Km [µM] |
| --- | --- |
| NCCCC(NC(=O)c1ccc(NCc2ccc3nc(N)nc(N)c3c2Cl)cc1)C(=O)O (stereo not given) | 0.0017 |
| NCCCC(NC(=O)c1ccc(SCc2ccc3nc(N)[nH]c(=O)c3c2)cc1)C(=O)O (stereo not given) | 2.8 |
